Laboratory results reported in US6569888B1, “Anti-inflammatory indole derivatives” (AstraZeneca AB, priority 1999, dated 2003).
Read-outs that look alike come from different tables or passages of the source.

Experiments:
MCP-1 receptor B (CCR2B) = target: T1, MCP-1 receptor B (CCR2B) (Homo sapiens, UniProt P41597); assay: hMCP-1 receptor binding assay (125I-MCP-1, CHO-CCR2B cell membranes)
T1 construct: expressed in transfected cells; host or cells: CHO-K1 (clone 7, CHO-CCR2B), membrane fragments
T1 sequence (P41597 1-360 isoform P41597-2): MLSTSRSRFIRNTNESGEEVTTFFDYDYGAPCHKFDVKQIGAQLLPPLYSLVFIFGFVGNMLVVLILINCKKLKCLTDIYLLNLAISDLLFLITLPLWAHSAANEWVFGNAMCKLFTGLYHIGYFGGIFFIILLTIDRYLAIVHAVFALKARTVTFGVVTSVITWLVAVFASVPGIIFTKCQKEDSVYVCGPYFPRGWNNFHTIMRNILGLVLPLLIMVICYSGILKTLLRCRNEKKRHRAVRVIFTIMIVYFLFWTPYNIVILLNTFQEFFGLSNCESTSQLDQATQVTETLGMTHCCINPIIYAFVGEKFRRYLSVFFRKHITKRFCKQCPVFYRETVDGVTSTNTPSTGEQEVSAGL
Excerpt: The MCP-1 receptor B (CCR2B) cDNA was cloned by PCR from THP-1 cell RNA using suitable oligonucleotide primers based on the published MCP-1 receptor sequences (Charo et al., 1994, Proc. Natl. Acad. Sci. USA, 91, 2752). The resulting PCR products were cloned into vector PCR-II™ (In Vitrogen, San Diego, Calif.). Error free CCR2B cDNA was subcloned as a Hind III-Not I fragment into the eukaryotic expression vector pCDNA3 (In Vitrogen) to generate pCDNA3/CC-CKR2A and pCDNA3/CCR2B respectively.
Linearised pCDNA3/CCR2B DNA was transfected into CHO-K1 cells by calcium phosphate precipitation (Wigler el al., 1979, Cell, 16, 777). Transfected cells were selected by the addition of Geneticin Sulphate (G418, Gibco BRL) at 1 mg/ml, 24 hours after the cells had been transfected. Preparation of RNA and Northern blotting were carried out as described previously (Needham et al., 1995, Prot. Express. Purific., 6, 134). CHO-K1 clone 7 (CHO-CCR2B) was identified as the highest MCP-1 receptor B expresser. […]
^125I MCP-1 was prepared using Bolton and Hunter conjugation (Bolton et al. 1973, Biochem. J., 133, 529; Amersham International plc]. Equilibrium binding assays were carried out using, the method of Ernst et al., 1994, J. Immunol., 152, 3541. Briefly, varying amounts of ^125I-labeled MCP-1 were added to 7 μg of purified CHO-CCR2B cell membranes in 100 μl of Binding Buffer. After 1 hour incubation at room temperature the binding reaction mixtures were filtered and washed 5 times through a plate washer (Brandel MLR-96T Cell Harvester) using ice cold Binding Buffer. Filter mats (Brandel GF/B) were pre-soaked for 60 minutes in 0.3% polyethylenimine prior to use. Following filtration individual filters were separated into 3.5 ml tubes (Sarstedt No. 55.484) and bound ^125I-labeled MCP-1 was determined (LKB 1277 Gammamaster). […] Non-specific binding was determined by the inclusion of a 200-fold molar excess of unlabelled MCP-1 in the reaction. […]

THP-1 cells [1] = assay: hMCP-1 mediated chemotaxis; format: cell-based, human
Procedure: (§1) In vitro chemotaxis assays were performed using the human monocytic cell line THP-1. Cell migration through polycarbonate membranes was measured by enumerating those passing through either directly by Coulter counting or indirectly by use of a colourimetric viability assay measuring the cleavage of a tetrazolium salt by the mitochondrial respiratory chain (Scudiero D. A. et al. 1988, Cancer Res., 48, 4827-4833).
(§2) Chemoattractants were introduced into a 96-well microtitre plate which forms the lower well of a chemotaxis chamber fitted with a PVP-free 5 μm poresize polycarbonate adhesive framed filter membrane (NeuroProbe MB series, Cabin John, Md. 20818, USA) according to the manufacturer's instructions. […] The plate was incubated at 37° C. for 3 h and the absorbance of the soluble formazan product was read on a microtitre plate reader at 450 nm. The data was input into a spreadsheet, corrected for any random migration in the absence of chemoattractant and the average absorbance values, standard error of the mean, and significance tests were calculated. hMCP-1 induced concentration dependent cell migration with a characteristic biphasic response, maximal […]. […]

THP-1 cells [2] = assay: RANTES mediated chemotaxis; format: cell-based; conditions: Homo sapiens, RANTES 2 nM, Calcein AM tagged cells
Procedure: as §1, §2

THP-1 cells [3] = assay: MCP-1 mediated calcium flux in THP-1 cells; format: cell-based, human; conditions: stimulation of THP-1 cells with hMCP-1, FURA-2; read-out: EC50 of rise in [Ca2+]i
Procedure: The human monocytic cell line THP-1 was grown in a synthetic cell culture medium RPMI 1640 supplemented with 10% foetal calf serum, 6 mM glutamine and Penicillin-Streptomycin (at 50 μg streptomycin/ml, Gibco BRL). THP-1 cells were washed in HBSS (lacking Ca^2+ and Mg^2+)+1 mg/ml BSA and resuspended in the same buffer at a density of 3×10^6 cells/ml. The cells were then loaded with […] FURA-2/AM for 30 min at 37° C., washed twice in HBSS, and resuspended at 1×10^6 cells/ml. THP-1 cell suspension (0.9 ml) was added to a 5 ml disposable cuvette containing a magnetic stirrer bar and 2.1 ml of prewarmed (37° C.) HBSS containing 1 mg/ml BSA. 1 mM MgCl2 and 2 mM CaCl2. The cuvette was placed in a fluorescence spectrophotometer (Perkin Elmer, Norwalk, Conn.) and preincubated for 4 min at 37° C. with stirring. Fluorescence was recorded over 70 sec and cells were stimulated by addition of hMCP-1 to the cuvette after 10 sec. [Ca^2+]i was measured by excitation at 340 nm and 380 nm alternately and subsequent measurement of the intensity of the fluorescence emission at 510 nm.
where the Kd for FURA-2 Ca^2+ complex at 37° C. was taken to be 224 nm. […]

Question: How did the IC50 (MCP-1 receptor B (CCR2B); competition with 100 pM labelled MCP-1, CHO-CCR2B membranes, 0.01-50 μM, duplicate eight point curves, read-out: IC50 in the hMCP-1 receptor binding assay) turn out when `O=C(O)COc1cccc2c1cc(C(=O)O)n2Cc1ccc(F)c(F)c1` [Compound 5, N-(3,4-Difluorobenzyl)-4-(carboxymethoxy)indole-2-carboxylic Acid] was run?
Answer: 2300 nM

Question: Which IC50 (THP-1 cells [1]; Homo sapiens, 1 nM MCP-1) does the source give for `COc1ccc2c(cc(C(=O)O)n2Cc2ccc(Cl)c(Cl)c2)c1OCC(=O)O` [Compound 9, N-(3,4-Dichlorobenzyl)-5-methoxy-4-(carboxymethoxy)indole-2-carboxylic Acid] here?
Answer: 12800 nM

Question: For `O=C(O)c1cc2c(OCCCO)cccc2n1Cc1ccc(Cl)c(Cl)c1` [Compound 15, N-(3,4-Dichlorobenzyl)-4-(3-hydroxypropoxy)indole-2-carboxylic Acid], which IC50 (THP-1 cells [2]) is on record?
Answer: 3640 nM

Question: Which results are given for “MCP-1: Human Monocyte Chemoattractant Protein-1, chemokine ligand of the CCR2 receptor”?
Answer: IC50 (MCP-1 receptor B (CCR2B); cold competition, 100 pM 125I-labeled MCP-1, CHO-CCR2B membrane fragments, read-out: IC50 of MCP-1 binding to CCR2B receptor): 0.11 nM; Kd (MCP-1 receptor B (CCR2B); equilibrium binding, CHO-CCR2B membrane fragments): 0.12 nM; EC50 (THP-1 cells [3]): ~2 nM; concentration of maximal cell migration (biphasic response) (THP-1 cells [1]; hMCP-1 as chemoattractant): 0.5-1.0 nm
